# Results from publication PMC4209162, “Specific aromatic foldamers potently inhibit spontaneous and seeded Aβ42 and Aβ43 fibril assembly” (Biochemical Journal, 2014).
# Entries after “also recorded” stand apart in the source; their conditions may differ.
# How the values were obtained:
# Aβ43 [1] = target: T1, Aβ43 (Homo sapiens, UniProt P05067); test: Spontaneous Aβ43 fibrillization (ThT fluorescence, EM); format: biochemical; conditions: for Inhibition of spontaneous Aβ43 fibrillization: foldamer 5, 10 or 20 μM, 0–8 h, EM 10 μM 4 h; for Inhibition of spontaneous Aβ43 fibrillization / Inhibition of spontaneous Aβ43 fibrillization, different assembly conditions: ThT; for Inhibition of spontaneous Aβ43 fibrillization, different assembly conditions: Aβ prepared without DMSO, PBE pH 8, Aβ43 5 μM, foldamer 20 μM, 16 h
# T1 sequence (P05067 672-714 limits assumed): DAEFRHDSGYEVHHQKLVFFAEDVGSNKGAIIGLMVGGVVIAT
# FUS = target: T2, FUS (Homo sapiens, UniProt P35637); test: FUS aggregation (turbidity, absorbance at 395 nm); format: biochemical; conditions: GST-FUS 5 μM, foldamer 20 μM, plus TEV protease, 25°C, 0–90 min
# T2 sequence (P35637 1-526): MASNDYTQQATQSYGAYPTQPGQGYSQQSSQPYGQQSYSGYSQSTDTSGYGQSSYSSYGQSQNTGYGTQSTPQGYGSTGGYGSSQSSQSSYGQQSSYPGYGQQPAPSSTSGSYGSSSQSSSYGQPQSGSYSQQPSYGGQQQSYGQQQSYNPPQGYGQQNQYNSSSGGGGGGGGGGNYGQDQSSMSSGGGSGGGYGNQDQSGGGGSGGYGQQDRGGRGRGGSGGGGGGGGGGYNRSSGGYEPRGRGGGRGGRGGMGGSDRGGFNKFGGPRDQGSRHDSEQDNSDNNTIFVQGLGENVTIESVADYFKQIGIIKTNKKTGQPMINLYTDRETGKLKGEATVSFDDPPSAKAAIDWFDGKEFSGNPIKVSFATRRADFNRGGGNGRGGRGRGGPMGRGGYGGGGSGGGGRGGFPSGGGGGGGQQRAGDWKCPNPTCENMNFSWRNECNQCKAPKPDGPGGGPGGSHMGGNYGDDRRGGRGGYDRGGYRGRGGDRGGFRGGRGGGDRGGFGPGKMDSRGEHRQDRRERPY
# Protocol: GST–TEV–FUS was purified as described. Aggregation was initiated by addition of tobbaco etch virus (TEV) protease to GST–TEV–FUS (5 μM) plus or minus foldamer (20 μM) in assembly buffer (50 mM Tris/HCl pH 8, 0.2 M trehalose and 20 mM glutathione). Aggregation was for 0–90 min at 25°C without agitation in a 96-well plate and was assessed by turbidity (absorbance at 395 nm) using a Tecan Infinite M1000 plate reader. No aggregation occurred unless TEV protease was added to separate GST from FUS [58].
# [2] = system: SH-SY5Y human neuroblastoma cells; test: Toxicity of Aβ43 conformers to SH-SY5Y cells (MTT reduction, LDH release); format: cell-based; conditions: 24 h, MTT and LDH; for Effect on toxicity of Aβ43 conformers after 0.5 h of assembly: Aβ43 5 μM assembled with foldamer 20 μM for 0.5 h; for Effect on toxicity of Aβ43 conformers after 4 h of assembly: Aβ43 5 μM assembled with foldamer 20 μM for 4 h
# Protocol: (§1) SH-SY5Y human neuroblastoma cells were maintained in Dulbecco's modified Eagle's medium (DMEM) plus 10 mM Hepes, 10% FBS, 4 mM glutamine, penicillin (200 units/ml) and streptomycin (200 μg/ml) in 5% CO2 at 37°C. Cells were differentiated in serum-free DMEM with N2 supplement and 10 μM all-trans-retinoic acid before use. Cells were plated at (10000 cells/well) in 96-well plates and grown overnight. Medium was removed and Aβ conformers or controls were added and cells were incubated for 24 h at 37°C. Toxicity was assessed using an MTT kit (Tox-1; Sigma) or via lactate dehydrogenase (LDH) release using the CytoTox-ONE™ kit (Promega). Toxicity values were normalized to the buffer control without Aβ.
# Aβ43 [3] = target: T1, Aβ43; test: Seeded Aβ43 fibrillization (ThT fluorescence, EM); format: biochemical; conditions: for Inhibition of seeded Aβ43 fibrillization: Aβ43 5 μM plus seed 0.1 μM monomer, foldamer 5, 10 or 20 μM, 0–2 h, 25°C, EM; for Inhibition of seeded Aβ43 fibrillization / Inhibition of seeded Aβ43 fibrillization, different assembly conditions: ThT; for Inhibition of seeded Aβ43 fibrillization, different assembly conditions: Aβ prepared without DMSO, PBE pH 8, Aβ43 5 μM plus seed 0.1 μM monomer, foldamer 20 μM, 16 h
# Aβ42 [4] = target: T3, Aβ42 (Homo sapiens, UniProt P05067); test: Spontaneous Aβ42 fibrillization (ThT fluorescence, EM); format: biochemical; conditions: 25°C; for Inhibition of spontaneous Aβ42 fibrillization: Aβ42 5 μM, foldamer 10 μM, 8 h, agitation, ThT fluorescence (EM 4 h); for Inhibition of spontaneous Aβ42 fibrillization, different assembly conditions: Aβ prepared without DMSO, PBE pH 8, Aβ42 5 μM, foldamer 20 μM, 16 h, ThT
# T3 sequence (P05067 672-713 limits assumed): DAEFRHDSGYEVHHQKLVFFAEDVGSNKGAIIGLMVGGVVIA
# Aβ42 [5] = target: T3, Aβ42; test: Seeded Aβ42 fibrillization (ThT fluorescence, EM); format: biochemical; conditions: for Extent of seeded Aβ42 fibrillization at 4-fold molar excess of foldamer / Inhibition of seeded Aβ42 fibrillization: Aβ42 5 μM plus seed 0.1 μM monomer; for Extent of seeded Aβ42 fibrillization at 4-fold molar excess of foldamer / Inhibition of seeded Aβ42 fibrillization, different assembly conditions: foldamer 20 μM; for Inhibition of seeded Aβ42 fibrillization: foldamer 5, 10 or 20 μM, 0–2 h, 25°C; for Inhibition of seeded Aβ42 fibrillization, different assembly conditions: Aβ prepared without DMSO, PBE pH 8, Aβ42 5 μM plus seed 0.1 μM monomer, 16 h
# [6] = system: SH-SY5Y human neuroblastoma cells; test: Toxicity of Aβ42 conformers to SH-SY5Y cells (MTT reduction, LDH release); format: cell-based; conditions: 24 h, MTT and LDH; for Effect on toxicity of Aβ42 conformers after 0.5 h of assembly: Aβ42 5 μM assembled with foldamer 20 μM for 0.5 h; for Effect on toxicity of Aβ42 conformers after 4 h of assembly: Aβ42 5 μM assembled with foldamer 20 μM for 4 h
# Protocol: as §1
# Aβ42 fibrils = Aβ42 fibrils (Homo sapiens, UniProt P05067); test: Disassembly of preformed Aβ42 fibrils; format: biochemical; conditions: foldamer in 4-fold molar excess, 24 h (results not shown)
# Aβ42 fibrils, sequence (P05067 672-713 limits assumed): as above
# Aβ43 oligomers = Aβ43 oligomers (Homo sapiens, UniProt P05067); test: A11-reactive Aβ43 conformers (ELISA); format: biochemical; conditions: Aβ43 5 μM, foldamer 20 μM, 25°C; for Effect on A11-reactive Aβ43 conformers after 0.5 h: 0.5 h (end of lag phase); for Effect on A11-reactive Aβ43 conformers after 4 h: 4 h (endpoint of fibrillization)
# Aβ43 oligomers, sequence (P05067 672-714 limits assumed): as the sequence (P05067 672-714 limits assumed) above
# Aβ42 oligomers = Aβ42 oligomers (Homo sapiens, UniProt P05067); test: A11-reactive Aβ42 conformers (ELISA); format: biochemical; conditions: Aβ42 5 μM, foldamer 20 μM, 25°C; for Effect on A11-reactive Aβ42 conformers after 0.5 h: 0.5 h (end of lag phase); for Effect on A11-reactive Aβ42 conformers after 4 h: 4 h (endpoint of fibrillization)
# Aβ42 oligomers, sequence (P05067 672-713 limits assumed): as the sequence (P05067 672-713 limits assumed) above
Substance,Effect on toxicity of Aβ43 conformers after 0.5 h of assembly [2],Effect on toxicity of Aβ43 conformers after 4 h of assembly [2],Inhibition of spontaneous Aβ42 fibrillization (Aβ42 [4]),"Inhibition of spontaneous Aβ42 fibrillization, different assembly conditions (Aβ42 [4])","Inhibition of seeded Aβ42 fibrillization, different assembly conditions (Aβ42 [5])",Effect on toxicity of Aβ42 conformers after 0.5 h of assembly [6],Effect on toxicity of Aβ42 conformers after 4 h of assembly [6],Effect on A11-reactive Aβ43 conformers after 0.5 h (Aβ43 oligomers),Effect on A11-reactive Aβ43 conformers after 4 h (Aβ43 oligomers),Effect on A11-reactive Aβ42 conformers after 0.5 h (Aβ42 oligomers),Effect on A11-reactive Aβ42 conformers after 4 h (Aβ42 oligomers),further results
Sal-(Lys-Sal)3-CONH2,neither Sal-(Lys-Sal)3-CONH2 nor Ac-Sal-(Lys-Sal)3-CONH2 affected the toxicity,neither Sal-(Lys-Sal)3-CONH2 nor Ac-Sal-(Lys-Sal)3-CONH2 affected the toxicity,strong inhibitors; also recorded: potent inhibitors,inhibited,inhibited,had no effect,enhanced,had no effect,declined more extensively,had no effect,remained at higher levels,"ThT fluorescence of Aβ43 fibrils formed in presence of foldamer (spontaneous) (Aβ43 [1]; Aβ43 5 μM, compared with Aβ43 alone): higher ThT fluorescence; Inhibition of spontaneous Aβ43 fibrillization (Aβ43 [1]; Aβ43 5 μM, 25°C): did not block spontaneous Aβ43 fibrillization; Inhibition of FUS aggregation (FUS): delayed FUS aggregation; Inhibition of seeded Aβ43 fibrillization (Aβ43 [3]): did not inhibit seeded Aβ43 fibrillization; ThT fluorescence of Aβ43 fibrillar forms in presence of foldamer (seeded) (Aβ43 [3]; Aβ43 5 μM plus seed, compared with Aβ43 alone): higher ThT fluorescence signal; Extent of seeded Aβ42 fibrillization at 4-fold molar excess of foldamer (Aβ42 [5]): very limited; Inhibition of seeded Aβ42 fibrillization (Aβ42 [5]): only inhibited seeded Aβ42 fibrillization when present at a 4-fold molar excess over Aβ42; Disassembly of Aβ42 fibrils (Aβ42 fibrils): did not disassemble Aβ42 fibrils"
Sal-(Lys-Sal)2-CONH2,,,failed to inhibit assembly,,,,,,,,,
(Lys-Sal)3-CONH2,,,failed to inhibit assembly,,,,,,,,,
(Cit-Sal)4-CONH2,had no effect on toxicity,had no effect on toxicity,ineffective,had no effect,had no effect,had no effect on toxicity,had no effect on toxicity,had no effect,had no effect,had no effect,had no effect,"Inhibition of spontaneous Aβ43 fibrillization, different assembly conditions (Aβ43 [1]; 25°C): had no effect; Inhibition of seeded Aβ43 fibrillization, different assembly conditions (Aβ43 [3]): had no effect"
(Lys-Sal)4-COOH,,,ineffective,,,,,,,,,
(Arg-Benz)4-CONH2,had no effect,enhanced,strong inhibitors; also recorded: potent inhibitors,inhibited,inhibited,had no effect,enhanced,had no effect,had a similar effect,had no effect,remained at higher levels,"Major Aβ43 species by EM (Aβ43 [1]; Aβ43 5 μM, foldamer 10 μM, 4 h, 25°C): small oligomers were the major species; Inhibition of spontaneous Aβ43 fibrillization (Aβ43 [1]; Aβ43 5 μM, 25°C): blocked spontaneous Aβ43 fibrillization; Inhibition of spontaneous Aβ43 fibrillization, different assembly conditions (Aβ43 [1]; 25°C): inhibited; Inhibition of FUS aggregation (FUS): did not inhibit FUS aggregation; Inhibition of seeded Aβ43 fibrillization (Aβ43 [3]): blocked seeded Aβ43 fibrillization; Inhibition of seeded Aβ43 fibrillization, different assembly conditions (Aβ43 [3]): inhibited; Extent of seeded Aβ42 fibrillization at 4-fold molar excess of foldamer (Aβ42 [5]): some fibrillization occurred; Inhibition of seeded Aβ42 fibrillization (Aβ42 [5]): only inhibited seeded Aβ42 fibrillization when present at a 4-fold molar excess over Aβ42; Disassembly of Aβ42 fibrils (Aβ42 fibrils): did not disassemble Aβ42 fibrils"
(Lys-Sal)4-COβAla,,,ineffective,,,,,,,,,
(Cit-Sal)-(Arg-Sal)-(Cit-Sal)2-CONH2,,,ineffective,,,,,,,,,
(Lys-Sal)4-COMe,,,ineffective,,,,,,,,,
